Patent US5157052A, “Method for inhibiting IgE production” (priority 1990, dated 1992)

Columns and labels:
Assay type in all cases: in vivo, mouse (Balb/c female)
IgD = assay: Splenocyte cell surface density/distribution (FACS): IgD
Method: (§1) One group of 4 unstimulated Balb/c female mice is injected with PBS (Group A). Another (Group B) is injected with 20 μg (±) methyl 11α,16-dihydroxy-16-methyl-9-oxoprosta-5Z,13E-dien-1-oate as in Example 13. […] A 3 cm incision is made with a scalpel above the left hip, and the spleen is cut free from adjoining tissue and placed in a 100 mn plastic culture dish containing 10 ml PBS. The splenic cells are then made into a suspension, by rubbing the spleens between the rough, frosted ends of microscope slides repeatedly until the only remaining particulate matter is connective tissue. Cells are transferred to a 15 ml conical polystyrene tube and centrifuged in a centrifuge at 1200 rpm for 5 minutes. The supernatant is discarded by aspiration and the cell pellet is resuspended in 10 ml PBS, then centrifuged at 1200 rpm for 5 minutes. The supernatant is aspirated and the cell pellet is resuspended in 15 mM Tris, 140 mM Ammonium Chloride, to lyse red blood cells. After incubating at room temperature for 10 minutes the cell suspension is centrifuged at 1200 rpm for 10 minutes. The supernatant is discarded and the cell pellet is resuspended in 10 ml FACS Buffer (PBS containing 0.1% BSA and 0.1% Sodium Azide). The cell suspension is filtered through sterile glass wool plugged in the top of a pasteur pipet. Cells in the flow through are counted using a hemacytometer, then the cell suspension is centrifuged at 1200 rpm for 5 minutes. The supernatant is discarded and the cell pellet is resuspended in a volume of FACS Buffer that will yield 4×10^7 cells/ml. 10 μl (4×10^5 cells) is added to each well of a 96-well V-bottom plate. 25 μl of diluted monoclonal antibody directed against splenocyte cell surface proteins is added to each well: Major Histocompatability Complex (MHC) Class II (M5114, ATCC, Rockville Md.), MHC Class I (M1/42, ATCC), Anti-IgD (JA12.5, ATCC, Rockville, Md.), Thymocyte (Thy)-1 (JIJ, ATCC), B220 (14.8, ATCC), Kappa light chain (187, ATCC), IL-2 Receptor (7D4, ATCC), Lyt-1 (7.313, ATCC) and CD23 (biotinylated B3B4) and incubated on ice for 30 minutes. 100 μl 10% BSA 0.1% sodium azide is added to each well, then the plates are centrifuged at 1200 rpm for 10 minutes. The liquid is removed by aspiration and the cell pellets are resuspended in 100 μl FACS Buffer, and centrifuged at 1200 rpm for 5 minutes. […] Samples are transferred to individual tubes and 10,000 cells are analyzed. Using the Lysis software (Becton Dickinson, Mountain View, Calif.) the mean channel log fluorescence and percent positive cells are determined for the entire cell population. […]

κ Light Chain = assay: Splenocyte cell surface density/distribution (FACS): κ Light Chain
Method: as §1

MHC Class I = assay: Splenocyte cell surface density/distribution (FACS): MHC Class I
Method: as §1

B220 = assay: Splenocyte cell surface density/distribution (FACS): B220
CD23 = assay: Splenocyte cell surface density/distribution (FACS): CD23
Method: as §1

IgG1 = assay: Serum IgG1 in anti-IgD stimulated mice (two site sandwich ELISA, Assay B)
Lyt 1 = assay: Splenocyte cell surface density/distribution (FACS): Lyt 1
[1] = anti-IgD stimulated mice, 20 μg days 3 and 4, day 7 (PBS 107)

CCCCC(C)(O)C/C=C/[C@H]1[C@H](O)CC(=O)[C@@H]1C/C=C\CCCC(=O)OC (mixture of isomers) [(±) methyl 11α,16-dihydroxy-16-methyl-9-oxoprosta-5Z,13E-dien-1-oate]
Percentage Positive Cells (IgD; anti-IgD stimulated mice, 20 μg days 3 and 4, day 7 (PBS 21.9)): 15.6 ± 8.4% | Mean Channel Log Fluorescence (IgD; [1]): 98 ± 0.5 | Mean Channel Log Fluorescence (IgD; unstimulated mice, 20 μg (PBS 130)): 132 ± 3.5 | Percentage Positive Cells (IgD; unstimulated mice, 20 μg (PBS printed 1.4)): 51.8 ± 3.7% | Percentage Positive Cells (κ Light Chain; anti-IgD stimulated mice, 20 μg days 3 and 4, day 7 (PBS 50)): 58 ± 14.6% | Mean Channel Log Fluorescence (κ Light Chain; anti-IgD stimulated mice, 20 μg days 3 and 4, day 7 (PBS 118)): 119 ± 7 | Percentage Positive Cells (κ Light Chain; unstimulated mice, 20 μg (PBS 52.1)): 53.9 ± 2.1% | Mean Channel Log Fluorescence (κ Light Chain; unstimulated mice, 20 μg (PBS 135)): 131 ± 4 | Percentage Positive Cells (MHC Class I; anti-IgD stimulated mice, 20 μg days 3 and 4, day 7 (PBS 48.5)): 59.4 ± 5.4% | Mean Channel Log Fluorescence (MHC Class I; anti-IgD stimulated mice, 20 μg days 3 and 4, day 7 (PBS 113)): 121 ± 15 | Percentage Positive Cells (MHC Class I; unstimulated mice, 20 μg (PBS 57.8)): 79 ± 16% | Mean Channel Log Fluorescence (MHC Class I; unstimulated mice, 20 μg (PBS 112)): 113 ± 2 | Percentage Positive Cells (B220; anti-IgD stimulated mice, 20 μg days 3 and 4, day 7 (PBS 49.3)): 61.2 ± .9% | Mean Channel Log Fluorescence (B220; [1]): 112 ± 4 | Percentage Positive Cells (B220; unstimulated mice, 20 μg (PBS 49.6)): 50.6 ± 4.6% | Mean Channel Log Fluorescence (B220; unstimulated mice, 20 μg (PBS 104)): 105 ± 2.5 | Percentage Positive Cells (CD23; anti-IgD stimulated mice, 20 μg days 3 and 4, day 7 (PBS 20.4)): 11.6 ± 1.6% | Mean Channel Log Fluorescence (CD23; anti-IgD stimulated mice, 20 μg days 3 and 4, day 7 (PBS 99)): 95 ± 1.5 | Percentage Positive Cells (CD23; unstimulated mice, 20 μg (PBS 46.6)): 44.2 ± 6.6% | Mean Channel Log Fluorescence (CD23; unstimulated mice, 20 μg (PBS 95)): 94 ± 3.2 | IgG1 ± SD (IgG1; 2 μg IP days 3 and 4, day 7 (control 4808)): 3220 ± 985 µg/mL | IgG1 ± SD (IgG1; 2 μg IP days 3 and 4, day 8 (control 13818)): 12947 ± 2195 µg/mL | IgG1 ± SD (IgG1; 2 μg IP days 3 and 4, day 9 (control 17700)): 19938 ± 3279 µg/mL | IgG1 ± SD (IgG1; 2 μg IP days 3 and 4, day 11 (control 17100)): 17589 ± 1923 µg/mL | IgG1 ± SD (IgG1; 2 μg IP days 3 and 4, day -1 baseline before treatment): 215 ± 124 µg/mL | IgG1 ± SD (IgG1; 5 μg IP days 3 and 4, day 7): 6902 ± 3604 µg/mL | IgG1 ± SD (IgG1; 5 μg IP days 3 and 4, day 8): 18202 ± 5327 µg/mL | IgG1 ± SD (IgG1; 5 μg IP days 3 and 4, day 9): 27069 ± 3257 µg/mL | IgG1 ± SD (IgG1; 5 μg IP days 3 and 4, day 11): 23205 ± 6506 µg/mL | IgG1 ± SD (IgG1; 5 μg IP days 3 and 4, day -1 baseline before treatment): 248 ± 189 µg/mL | IgG1 ± SD (IgG1; 10 μg IP days 3 and 4, day 7): 6952 ± 3410 µg/mL | IgG1 ± SD (IgG1; 10 μg IP days 3 and 4, day 8): 17649 ± 3158 µg/mL | IgG1 ± SD (IgG1; 10 μg IP days 3 and 4, day 9): 26978 ± 11752 µg/mL | IgG1 ± SD (IgG1; 10 μg IP days 3 and 4, day 11): 26361 ± 6660 µg/mL | IgG1 ± SD (IgG1; 10 μg IP days 3 and 4, day -1 baseline before treatment): 166 ± 14 µg/mL | IgG1 ± SD (IgG1; 20 μg IP days 3 and 4, day 7): 6816 ± 3349 µg/mL | IgG1 ± SD (IgG1; 20 μg IP days 3 and 4, day 8): 16838 ± 4174 µg/mL | IgG1 ± SD (IgG1; 20 μg IP days 3 and 4, day 9): 23900 ± 11791 µg/mL | IgG1 ± SD (IgG1; 20 μg IP days 3 and 4, day 11): 24998 ± 7169 µg/mL | IgG1 ± SD (IgG1; 20 μg IP days 3 and 4, day -1 baseline before treatment): 255 ± 66 µg/mL | IgG1 ± SD (IgG1; 40 μg IP days 3 and 4, day 7): 5168 ± 2391 µg/mL | IgG1 ± SD (IgG1; 40 μg IP days 3 and 4, day 9): 24337 ± 4729 µg/mL | IgG1 ± SD (IgG1; 40 μg IP days 3 and 4, day 11): 25930 ± 4376 µg/mL | Percentage Positive Cells (Lyt 1; anti-IgD stimulated mice, 20 μg days 3 and 4, day 7 (PBS 31.3)): 30.4 ± 8.8% | Mean Channel Log Fluorescence (Lyt 1; anti-IgD stimulated mice, 20 μg days 3 and 4, day 7 (PBS 110)): 109 ± 2 | Percentage Positive Cells (Lyt 1; unstimulated mice, 20 μg (PBS 31)): 44.5 ± 7% | Mean Channel Log Fluorescence (Lyt 1; unstimulated mice, 20 μg (PBS 110)): 117 ± 6
